Series [1] relates to Neutrophil. Nature of the series: Inhibition of FMLP/CB-induced superoxide anion generation in human neutrophils by ferricytochrome c reduction method. The series is classed as functional, cell-based.
In another series the test system is RAW264.7. Nature of the series: Inhibition of NO production in LPS/IFN-gamma activated mouse RAW264.7 cells after 24 hrs by Griess assay. The series is classed as functional, cell-based. (The Griess reaction detects nitrite, a stable product of nitric oxide.)
The test system of series [2] is Neutrophil. Nature of the series: Inhibition of FMLP/CB-induced superoxide anion generation in human neutrophils at 10 ug/ml by ferricytochrome c reduction method. The series is classed as functional.
The test system of series [3] is Neutrophil. Nature of the series: Inhibition of FMLP/CB-induced elastase release in human neutrophils at 10 ug/ml after 5 mins by spectrophotometry. The format is functional.
The subject of series [4] is Neutrophil. Nature of the series: Inhibition of FMLP/CB-induced elastase release in human neutrophils after 5 mins by spectrophotometry. The format is functional, cell-based.
Series [5] in a line: Cytotoxicity against human neutrophils at 10 ug/ml after 15 mins by LDH release assay. The format is cell-based. The conditions noted are these: neutrophil, 0.25 h. Background: LDH leaks from cells whose membrane has failed.
[6] abbreviates: Mus musculus, RAW264.7, 24 h, read-out: IC50.

IC50, inhibition and Activity data for 25 compounds are collected here from ChEMBL document CHEMBL3352285, “In vitro anti-inflammatory effects of diterpenoids and sesquiterpenoids from traditional Chinese medicine Siegesbeckia pubescens” (Bioorg Med Chem Lett, 2014).

Values after ≈ are worked out from the molar mass of the structure shown. Some results are limits rather than exact numbers.

Usually IC50 stands for the concentration that inhibits the measured activity by half. In general, inhibition refers to the relative decrease from the control value, in per cent. For the compound `C=C1C(=O)O[C@@H]2C[C@]3(C)[C@@H](CCC(C)O)[C@@H]3C[C@H]12` (stereo partly drawn), the IC50 is above 10 µg/mL in the series with Neutrophil [1], 18.9 µM in the series on RAW264.7 (setting [6]) and above 10 µg/mL with Neutrophil [4]. Moreover, the inhibition at 10 µg/mL in the series on Neutrophil [2] is 11.6%; in the series on Neutrophil [3], 39%.

On to `CC1(C)C[C@H]2[C@H]1CC[C@@]1(C)C[C@]2(O)CC[C@@H]1O`, for which the figures for the IC50 in the series with Neutrophil [1], with RAW264.7 (raw264.7) and in the series on Neutrophil [4] were above 10 µg/mL, “Not Active” and above 10 µg/mL, respectively. Also, the results for the inhibition at 10 µg/mL in the series on Neutrophil [2] and in the series on Neutrophil [3] were 10.2% and 5.93%, respectively.

Turning to `C=C(C)C(=O)O[C@H]1[C@H]2C(=C)C(=O)O[C@@H]2/C=C(\CO)CC/C=C(/C=O)[C@H]1OCC`, the IC50 was 6.46 µg/mL (≈ 16.5 µM) with Neutrophil [1], 6.8 µM in the series on RAW264.7 (setting [6]) and above 10 µg/mL in the series with Neutrophil [4]. In addition, the inhibition at 10 µg/mL with Neutrophil [2] was 72.4%; in the series on Neutrophil [3] it was 22.3%. The Activity result in series [5] was “Non-toxic”.

`CC1(C)OCC([C@]2(C)C=C3CC[C@@H]4[C@](C)(CO)C[C@@H](O)C[C@@]4(C)[C@@H]3CC2)O1` (stereo partly drawn): the IC50 in the series with Neutrophil [1] and with Neutrophil [4] was above 10 µg/mL throughout. Besides, the inhibition at 10 µg/mL with Neutrophil [2] turned out to be 38.4%; in the series with Neutrophil [3], 21.8%.

Turning to `COC(=O)[C@]1(C)CCC[C@@]2(C)[C@@H]3CC[C@@H]4C[C@@]3(CC[C@@H]21)C[C@@H]4CO`, the IC50 is 5.22 µg/mL (≈ 15.6 µM) in the series on Neutrophil [1] and above 10 µg/mL with Neutrophil [4]. The inhibition at 10 µg/mL came out at 90.7% in the series on Neutrophil [2] and 27.7% in the series with Neutrophil [3]. In series [5], the Activity entry is listed as “Toxic”.

With `C[C@@]12CCC[C@@](C)(C(=O)O)[C@H]1CC[C@]13C[C@H](CO)[C@@H](CC[C@H]12)C3`, the IC50 in the series on Neutrophil [1] is 3.72 µg/mL (≈ 11.6 µM); in the series on Neutrophil [4], above 10 µg/mL. Besides, the inhibition at 10 µg/mL in the series with Neutrophil [2] was found to be 89.5%; in the series with Neutrophil [3], 45.9%. In addition, the Activity entry in series [5] is reported as “Non-toxic”.

Turning to `C[C@@]1(CO)CC(=O)C[C@@]2(C)[C@@H]3CC[C@](C)(C(O)CO)C=C3CC[C@H]12` (stereo partly drawn), the IC50 in the series on Neutrophil [1] and in the series on Neutrophil [4] was above 10 µg/mL in each case. For the same compound, the inhibition at 10 µg/mL with Neutrophil [2] is 10.2%; in the series on Neutrophil [3], -0.75%.

Take `C=C1C(=O)O[C@@H]2C[C@]3(C)[C@@H](CCC(C)=O)[C@@H]3C[C@H]12`: the IC50 with Neutrophil [1] was above 10 µg/mL; in the series on RAW264.7 (setting [6]) it was 6.4 µM; in the series on Neutrophil [4], above 10 µg/mL. In addition, the inhibition at 10 µg/mL came out at 41.2% with Neutrophil [2] and 11.2% in the series on Neutrophil [3].

As to `C[C@]1(CO)[C@H]2CCC3=C[C@@](C)(C(O)CO)CC[C@H]3[C@]2(C)CC[C@H]1O` (stereo partly drawn), the IC50 with Neutrophil [1] and with Neutrophil [4] was above 10 µg/mL throughout. The inhibition at 10 µg/mL in the series with Neutrophil [2] is 17.8%; with Neutrophil [3], -0.74%.

Regarding `CC(=O)OC[C@@]1(C(=O)O)CCC[C@@]2(C)[C@@H]3CC[C@H]4C[C@@]3(CC[C@H]12)C[C@@]4(O)CO`, the IC50 in the series on Neutrophil [1] and with Neutrophil [4] was above 10 µg/mL throughout. Besides, the results for the inhibition at 10 µg/mL in the series on Neutrophil [2] and with Neutrophil [3] were 32.1% and 37%, respectively.

For the compound `C[C@@]12CCC[C@@](CO)(C(=O)O)[C@H]1CC[C@]13C[C@@H](CO)[C@@H](CC[C@H]12)C3`, the IC50 in the series on Neutrophil [1] and with Neutrophil [4] was above 10 µg/mL in each case. Moreover, the inhibition at 10 µg/mL with Neutrophil [2] was 7.81%; with Neutrophil [3], 15.7%.

For `CC1(C)[C@H]2CCC3=C[C@@](C)(C(O)CO)CC[C@H]3[C@]2(C)CC[C@H]1O[C@@H]1O[C@H](CO)[C@@H](O)[C@H](O)[C@H]1O` (stereo partly drawn), the IC50 in the series with Neutrophil [1] and in the series on Neutrophil [4] was above 10 µg/mL each time. The inhibition at 10 µg/mL in the series on Neutrophil [2] was determined as 5.86%; with Neutrophil [3], 5.93%.

As for `C=C1C(=O)O[C@H]2C[C@@H](C)[C@@H]3CC[C@H](O)[C@@]3(C)C[C@H]12` [PSEUDOGUAIANOLIDE], the IC50 in the series with Neutrophil [1] was above 10 µg/mL; in the series with RAW264.7 (setting [6]), 14.9 µM; in the series on Neutrophil [4], above 10 µg/mL. For the same compound, the inhibition at 10 µg/mL was determined as 17% with Neutrophil [2] and 46.9% with Neutrophil [3].

Take `CC1=CC(=O)CC(C)(C)[C@@]1(O)/C=C/C(C)O` (stereo partly drawn): the results for the IC50 with Neutrophil [1], in the series with RAW264.7 (raw264.7) and in the series with Neutrophil [4] were above 10 µg/mL, “Not Active” and above 10 µg/mL, respectively. In addition, the inhibition at 10 µg/mL in the series with Neutrophil [2] stood at 3.57%; in the series on Neutrophil [3] it was 3.42%.

For the compound `C[C@@]1(CO)C[C@@H](O)C[C@@]2(C)[C@@H]3CC[C@](C)(C(O)CO)C=C3CC[C@H]12` (stereo partly drawn), the half-maximal inhibitory concentration (IC50) with Neutrophil [1] and in the series with Neutrophil [4] was above 10 µg/mL each time. In addition, the figures for the inhibition at 10 µg/mL in the series on Neutrophil [2] and with Neutrophil [3] were 7.88% and 6.78%, respectively.

Turning to `CC(=O)OC[C@@]1(C(=O)O)CCC[C@@]2(C)[C@@H]3CC[C@H]4C[C@@]3(CC[C@H]12)C[C@@]4(O)COC(=O)C(C)C`, the values for the IC50 in the series on Neutrophil [1] and with Neutrophil [4] were above 10 µg/mL and 6.82 µg/mL (≈ 14.7 µM), respectively. Further, the inhibition at 10 µg/mL came to 46.7% in the series on Neutrophil [2] and 60.4% with Neutrophil [3]. Further, the Activity entry in series [5] is “Non-toxic”.

Take `CC(=O)OCC(O)[C@]1(C)C=C2CC[C@@H]3C(C)(C)[C@H](O[C@@H]4O[C@H](CO)[C@@H](O)[C@H](O)[C@H]4O)CC[C@@]3(C)[C@@H]2CC1` (stereo partly drawn): the IC50 in the series on Neutrophil [1] and in the series with Neutrophil [4] was above 10 µg/mL throughout. In addition, the inhibition at 10 µg/mL with Neutrophil [2] stood at 8.87%; with Neutrophil [3], 4.44%.

In the case of `O=c1cc(N2CCOCC2)oc2c(-c3ccccc3)cccc12` [LY-294002], the IC50 in the series with Neutrophil [1] was 0.4 µg/mL (≈ 1.3 µM); in the series with Neutrophil [4], 0.92 µg/mL (≈ 2.99 µM).

On to `C=C(C)C(=O)O[C@H]1[C@H]2C(=C)C(=O)O[C@@H]2/C=C(\CO)CC/C=C(/C=O)[C@H]1O`, for which the IC50 with Neutrophil [1] was above 10 µg/mL; in the series with RAW264.7 (raw264.7) it was “Not Active”; in the series on Neutrophil [4], above 10 µg/mL. Further, the inhibition at 10 µg/mL amounted to 9.01% in the series with Neutrophil [2] and 20.8% with Neutrophil [3].

On to `CC1(C)[C@H](O)CC[C@@]2(C)[C@@H]3CC[C@](C)(C(O)CO)C=C3CC[C@H]12` (stereo partly drawn), for which the IC50 in the series with Neutrophil [1] and in the series with Neutrophil [4] was above 10 µg/mL in each case. The inhibition at 10 µg/mL in the series on Neutrophil [2] amounted to 35.8%; in the series on Neutrophil [3], 21.9%.

On to `C[C@@]12CCC[C@@](C)(C(=O)O)[C@H]1CC[C@@]13C[C@H](CC[C@H]12)[C@H](C(=O)O)C3`, for which the IC50 in the series on Neutrophil [1] was 5.59 µg/mL (≈ 16.7 µM); in the series on Neutrophil [4], above 10 µg/mL. Moreover, the inhibition at 10 µg/mL was determined as 69.6% in the series with Neutrophil [2] and 31.5% in the series with Neutrophil [3]. Further, in series [5], the Activity entry is “Non-toxic”.

As for `C[C@@]12C[C@H](O)C[C@@](C)(C(=O)O)[C@H]1CCC1=C[C@@](C)(C(O)CO)CC[C@H]12` (stereo partly drawn), the IC50 in the series with Neutrophil [1] and with Neutrophil [4] was above 10 µg/mL each time. Moreover, the inhibition at 10 µg/mL in the series on Neutrophil [2] was found to be 5.18%; in the series on Neutrophil [3], 7.65%.

For the compound `C[C@@]12CCC[C@@](C)(C(=O)O)[C@H]1CC[C@@]13C[C@H](CC[C@H]12)[C@@](O)(CO)C3`, the IC50 amounted to 3.63 µg/mL (≈ 10.8 µM) in the series on Neutrophil [1] and 4.34 µg/mL (≈ 12.9 µM) in the series with Neutrophil [4]. Also, the inhibition at 10 µg/mL in the series with Neutrophil [2] worked out at 89.2%; in the series on Neutrophil [3], 70.8%. In series [5], the Activity entry is “Non-toxic”.

Take `CC(C)C(=O)OC[C@@H]1C[C@@]23CC[C@@H]4[C@](CO)(C(=O)O)CCC[C@@]4(C)[C@@H]2CC[C@H]1C3`: the figures for the IC50 in the series on Neutrophil [1] and in the series on Neutrophil [4] were 6.74 µg/mL (≈ 16.6 µM) and 4.73 µg/mL (≈ 11.6 µM), respectively. In addition, the inhibition at 10 µg/mL with Neutrophil [2] worked out at 67%; in the series with Neutrophil [3] it was 83.2%. Besides, the Activity entry in series [5] is recorded as “Non-toxic”.

Take `CC(=O)OC[C@@]1(C(=O)O)CCC[C@@]2(C)[C@@H]3CC[C@H]4C[C@@]3(CC[C@H]12)C[C@H]4COC(=O)C(C)C`: the IC50 in the series on Neutrophil [1] is above 10 µg/mL; with Neutrophil [4], 3.64 µg/mL (≈ 8.11 µM). The inhibition at 10 µg/mL with Neutrophil [2] came out at 35.2%; in the series with Neutrophil [3] it was 77.8%. Moreover, the Activity entry in series [5] is on record as “Non-toxic”.
